# What was measured:
# HEK293 cells = assay: Solid phase transfection with actin-like acting substances, gelatin as control (FIG. 1); assay type: cell-based, human
# Procedure: (§1) The final concentration of DNA was adjusted to 1 μg/μL. An actin-like acting substance was stored as a stock having a concentration of 10 μg/μL, in ddH2O. All dilutions were made using PBS, ddH2O, or Dulbecco's MEM. A series of dilutions, for example, 0.2 μg/μL, 0.27 μg/μL, 0.4 μg/μL, 0.53 μg/μL, 0.6 μg/μL, 0.8 μg/μL, 1.0 μg/μL, 1.07 μg/μL, 1.33 μg/μL, and the like, were formulated.
# In Example 2, the following 5 cells were used to confirm an effect: human mesenchymal stem cell (hMSCs, PT-2501, Cambrex BioScience Walkersville, Inc., MD); human embryonic renal cell (HEK293, RCB1637, RIKEN Cell Bank, JPN); NIH3T3-3 cell (RCB0150, RIKEN Cell Bank, JPN); HeLa cell (RCB0007, RIKEN Cell Bank, JPN); and HepG2(RCB1648, RIKEN Cell Bank, JPN). These cells were cultured in DMEM/10% IFS containing L-glutamine and penicillin/streptomycin.
# (§2) Transfection reagents and DNA were mixed to form a DNA-transfection reagent complex. Formation of the complex requires a certain period of time. Therefore, the mixture was spotted onto a solid phase support (e.g., a poly-L-lysine slide) using an arrayer. In Example 2, as a solid phase support, an APS slide, a MAS slide, and an uncoated slide were used, as well as a poly-L-lysine slide. These slides are available from Matsunami Glass (Kishiwada, Japan), or the like.
# Although the actin-like acting substance might be used during complex formation, it was also used immediately before spotting in the present Example.
# 300 μL of DNA concentrated buffer (EC buffer)+16 μL of an enhancer were mixed in an Eppendorf tube. The mixture was mixed with a Vortex, followed by incubation for 5 minutes. […]
# Gene introduction was evaluated by detection using, for example, immunofluorescence, fluorescence microscope examination, laser scanning, radioactive labels, and sensitive films, or emulsion.
# (§3) To quantify transfection efficiency, the present inventors use a DNA microarray scanner (GeneTAC UC4×4, Genomic Solutions Inc., MI). Total fluorescence intensity (arbitrary unit) was measured, and thereafter, fluorescence intensity per unit surface area was calculated.
# Mesenchymal Stem Cells = assay: Solid phase transfection at varied fibronectin concentration on PLL, APS and uncoated slides (FIG. 7); assay type: cell-based, human
# Procedure: as §1, §2
# The growing cells were adjusted to a concentration of 10^7 cells/25 mL. The cells were plated on the slide in a 100×100×15 mm squared Petri dish or a 100 mm (radius)×15 mm circular dish. Transfection was conducted for about 40 hours. This period of time corresponded to about 2 cell cycles. The slide was treated for immunofluorescence.
# as §3
# In FIG. 7, slides coated with PLL (poly-L-lysine), APS and uncoated slides are shown.
# Human Mesenchymal Cell = assay: Cell adhesion profile, actin filaments and nuclear surface area with or without fibronectin (FIGS. 8-10); assay type: cell-based; conditions: presence of fibronectin
# [1] = system: cells resistant or sensitive to the anticancer agent; assay: Time-lapse profiles of cells exposed to an anticancer agent; assay type: cell-based; conditions: 1 μM, 5 μM, 10 μM and the like
# Procedure: In this example, cisplatin was used as an exemplary anticancer agent and mixed into medium contacting cells. The concentration of the anticancer agent was selected as appropriate, such as 1 μM, 5 μM, 10 μM, and the like, to observe the reaction of the cells. Cisplatin was applied to cells resistant or sensitive to the anticancer agent. Time-lapse observation was conducted to produce profiles as in the above-described examples.
compound,measurement,setting,value
gelatin [reference compound],transfection in the system using the actin-like acting substance,HEK293 cells,transfection was not very successful
fibronectin,fibronectin concentration at which the effect was further increased,Mesenchymal Stem Cells; APS slides,> 1.07 µg/µL
same,fibronectin concentration at which transfection efficiency reached a plateau,Mesenchymal Stem Cells; PLL coating and absence of coating,more than 0.53 μg/μL
same,transfection efficiency as a function of fibronectin concentration,"Mesenchymal Stem Cells; fibronectin 0 to 1.33 μg/μL, PLL, APS, uncoated slides",increased with an increase in fibronectin concentration
same,transfection in the system using the actin-like acting substance,HEK293 cells,transfection took place to a significant level
same,surface area of the nucleus,Human Mesenchymal Cell,significantly increased
same,extension of adherent cells,Human Mesenchymal Cell; initial 3 hours of culture,full extension of cells
N.N.[Cl][Pt][Cl] [cisplatin],time-lapse profiles,[1],varied depending on the difference in cisplatin concentration and resistance/sensitivity
laminin,transfection in the system using the actin-like acting substance,HEK293 cells,transfection took place to a significant level

# Source: patent US20090012766A1, “Event Sequencer” (NATIONAL INSTITUTE OF ADVANCED INDUSTRIAL SCIENCE AND …, priority 2004, published 2009)
